Structures can show the parent of a compound that is named as a salt.
Experiments:
Recombinant GST-Tie2 = biological target: T1, Recombinant GST-Tie2 (Homo sapiens, UniProt Q02763); assay: Tie2 Fluorescence Polarization Kinase Activity Assay (TIE2-FP); assay type: biochemical; details: activated Tie2, 200 μM ATP
T1 construct: GST
Description: Tie2 Fluorescence Polarization Kinase Activity Assay: (TIE2-FP)
Activation of Recombinant Tie2 Activation:
Recombinant GST-Tie2 was activated by incubating the enzyme in 20 mM Tris-HCl, pH 7.5, 12 mM MgCl2, 100 mM NaCl, 20 μM sodium vanidate, 1 mM DT and 300 μM ATP at room temperature for 2 hours. The activation mixture was then passed through a NAP-25 desalting column (Pharmacia Biotech cat. no. 17-0852-O2) to remove the free ATP. The activated enzyme was stored as aliquots at −80° C. in 20 mM Tris-HCl, pH 7.5 and 100 mM NaCl.
The final assay conditions were 50 mM HEPES, pH 7.5, 5% DMSO (when screening compounds), 200 μM ATP, 5 mM MgCl2, 1 mM DTT, 50 μM sodium vanidate, 1 nM activated enzyme, and 200 μM peptide. IC50's of compounds were measured under subsaturating ATP (200 μM) and varing concentrations of activated Tie2 and peptide substrate (RFWKYEFWR-OH; MW 1873 Da, TFA salt). Panvera Anti-phosphotyrosine antibody (Cat#P2840) and PTK Green Tracer (Cat#P2842) were used to detect the phosphorylated peptide. Polarization was measured on a TECAN Polarion in 138-second cycles for 30 minutes at room temperature. IC50's were then determined from the % polarization using normal calculation methods.

GST-VEGFR2 = biological target: T2, GST-VEGFR2 (Homo sapiens, UniProt P35968); assay: VEGF-R2 Enzyme Assay (VEGF-E), LANCE method; assay type: biochemical; details: GST-VEGFR2, 75 μM ATP, peptide phosphorylation
T2 construct: GST-VEGFR2, baculovirus expressed recombinant constructs of the intracellular domains of human TIE2 tagged by GST; made in house
Excerpt: VEGF-R2 Enzyme Assay VEGF-E)
The VEGF enzyme assay used the LANCE method (Wallac) and GST-VEGFR2, baculovirus expressed recombinant constructs of the intracellular domains of human TIE2 tagged by GST. The method measured the ability of the purified enzymes to catalyse the transfer of the γ-phosphate from ATP onto tyrosine residues in a biotinylated synthetic peptide, (biotin-aminohexyl-EEEEYFELVAKKKK-NH2). This peptide phosphorylation was detected using the following procedure: GST-VEGFR2 was incubated for 40-60 mins at room temperature with 75 μM ATP, 5 mM MgCl2, 0.1 mM DTT, 0.1 mg/mL BSA and the test compound (diluted from a 10 mM stock in DMSO for desired concentration) in 100 mM HEPES buffer. The reaction was stopped by the addition of EDTA (final concentration 50 mM). Streptavidin linked-APC (allophycocyanin, Molecular Probe) and Europium-labeled anti-phosphorylated tyrosile antibody (Wallac) were then added at the final concentration of 15 nM and 1 nM, respectively. The APC signal was measured using an ARVO multilabel counter (Wallac Berthold, Japan). The percent inhibition of activity was calculated relative to blank control wells. The concentration of test compound that inhibits 50% of activity (IC50) was interpolated using nonlinear regression (Levernberg-Marquardt) and the equation, γ=Vmax (1−x/(K+x))+Y2, where “K” was equal to the IC50. The IC50 values were converted to pIC50 values, i.e., −log IC50 in Molar concentration.

[1] = test system: Human umbilical cord endothelial cells (HUVEC); assay: VEGF-Driven Cellular Proliferation Assay: BrdU Incorporation Assay (VEGF-C); assay type: cell-based
Description: VEGF-Driven Cellular Proliferation Assay: BrdU Incorporation Assay (VEGF-C)
Human umbilical cord endothelial cells (HUVEC, Clonetics, CC2519) were passaged in Type I collagen-coated 100-mm petridishes in EGM-MV medium (Clonetics, CC3125) at 37 C in a humidified 5% CO2, 95% air incubator. (HUVEC passaged more than 6 times in vitro were discarded and not subjected to assaying.) The cells were harvested using trypsin/EDTA, counted using a haemocytometer and plated at 5000 cells/well in a Type I-collagen coated 96-well plate (Becton Dickinson, 354407) in M199 medium (Gibco BRL, 12340-030) containing 5% FBS (Hyclone, A 1115-L) and gentamicin (at 50 ug/ml, Gibco BRL). After incubation overnight at 37° C., the media were replaced with 100 ul of M199 serum-free medium containing compounds at various concentrations with 0.6% DMSO and gentamicin. The compounds were diluted in serum-free M199 medium from 10 mM stock solutions prepared in 100% DMSO. After a 30 min incubation at 37° C. the cells were fed with 100 ul of serum-free M199 medium containing gentamicin, 0.2% culture-grade bovine serum albumin (BSA, Sigma A1993) and 20 ng/ml of VEGF (R&D systems, 293-VE) or 0.6 ng/ml of basic FGF (R&D systems, 233-FB), and cultured at 37° C. for another 24 h. The cells were pulsed with bromodeoxyuridine (BrdU at 10 μM in serum-free M199) at 37° C. for an additional 24 h. The incorporation of BrdU into the proliferating HUVEC were analyzed using BrdU Cell Proliferation ELISA (Roche Molecular Biochemicals, 1647229) according to the manufacturer's protocols. The optical density at 450 nm was measured with a multilabel counter (ARVO SX, Wallac). The percent inhibition of cell growth was calculated relative to blank control wells. The concentration of test compound that inhibits 50% of cell growth (IC50) was interpolated using nonlinear regression (Levernberg-Marquardt) and the equation, γ=Vmax (1−x/(K+x))+Y2, where “K” was equal to the IC50. The IC50 values were converted to pIC50 values, i.e., −log IC50 in Molar concentration.

T2 sequence (P35968 786-1356 limits assumed): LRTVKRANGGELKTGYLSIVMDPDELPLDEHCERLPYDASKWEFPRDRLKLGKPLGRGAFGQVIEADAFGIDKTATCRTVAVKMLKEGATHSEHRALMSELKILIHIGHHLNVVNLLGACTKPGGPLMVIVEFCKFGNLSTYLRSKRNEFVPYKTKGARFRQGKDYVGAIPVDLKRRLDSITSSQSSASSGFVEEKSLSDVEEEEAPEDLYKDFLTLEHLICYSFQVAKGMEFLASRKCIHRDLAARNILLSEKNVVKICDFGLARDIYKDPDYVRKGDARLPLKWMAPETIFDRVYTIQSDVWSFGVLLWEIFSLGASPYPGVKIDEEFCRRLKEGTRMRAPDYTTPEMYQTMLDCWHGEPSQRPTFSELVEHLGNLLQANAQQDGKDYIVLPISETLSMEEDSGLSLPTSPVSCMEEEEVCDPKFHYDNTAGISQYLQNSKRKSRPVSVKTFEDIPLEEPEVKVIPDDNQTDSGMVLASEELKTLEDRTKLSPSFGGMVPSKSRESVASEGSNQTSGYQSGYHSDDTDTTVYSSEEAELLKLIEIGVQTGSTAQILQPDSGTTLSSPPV
T1 sequence (Q02763 770-1124 limits assumed): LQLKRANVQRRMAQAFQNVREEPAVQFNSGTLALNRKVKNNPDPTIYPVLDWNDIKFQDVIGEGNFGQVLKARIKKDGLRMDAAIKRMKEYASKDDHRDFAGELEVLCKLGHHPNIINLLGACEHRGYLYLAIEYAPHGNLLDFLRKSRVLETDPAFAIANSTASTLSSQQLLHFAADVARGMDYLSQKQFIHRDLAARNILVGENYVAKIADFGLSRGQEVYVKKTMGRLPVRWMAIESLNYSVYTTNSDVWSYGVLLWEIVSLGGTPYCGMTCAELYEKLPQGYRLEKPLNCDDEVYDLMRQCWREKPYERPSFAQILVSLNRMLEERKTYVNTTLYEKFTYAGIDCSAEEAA

Row | Compound | IC50 (Recombinant GST-Tie2) | IC50 (GST-VEGFR2) | IC50 [1]
1 | CN(c1cccc(NC(=O)Nc2cccc(F)c2)c1)c1ccnc(Nc2cccc(S(N)(=O)=O)c2)n1 [Example 16, 3-({4-[[3-({[(3-Fluorophenyl)amino]carbonyl}amino)phenyl](methyl)amino]pyrimidin-2-yl}amino)benzenesulfonamide] | 100 to 1000 nM | < 100 nM | < 100 nM
2 | CN(c1ccc(NC(=O)Nc2ccc(OC(F)(F)F)cc2)cc1)c1ccnc(Nc2cccc(S(N)(=O)=O)c2)n1 [Example 1, 3-{[4-(methyl{4-[({[4-(trifluoromethoxy)phenyl]amino}carbonyl)amino]phenyl}-amino)pyrimidin-2-yl]amino}benzenesulfonamide] | < 100 nM | < 100 nM | < 100 nM
3 | CN(c1ccc(NC(=O)NCc2ccccc2Cl)cc1)c1ccnc(Nc2cccc(S(N)(=O)=O)c2)n1 [Example 5, 3-({4-[[4-({[(2-chlorobenzyl)amino]carbonyl}amino)phenyl](methyl)amino]pyrimidin-2-yl}amino)benzenesulfonamide] | < 100 nM | < 100 nM | < 100 nM
4 | CN(c1ccc(NC(=O)Nc2ccc(Oc3ccccc3)cc2)cc1)c1ccnc(Nc2cccc(S(N)(=O)=O)c2)n1 [Example 3, 3-[(4-{methyl[4-({[(4-phenoxyphenyl)amino]carbonyl}amino)phenyl]amino}-pyrimidin-2-yl)amino]benzenesulfonamide] | < 100 nM | < 100 nM | < 100 nM
5 | CN(c1ccc(NC(=O)Nc2cccc(Cl)c2)cc1)c1ccnc(Nc2cccc(S(N)(=O)=O)c2)n1 [Example 9, 3-({4-[[4-({[(3-Chlorophenyl)amino]carbonyl}amino)phenyl](methyl)amino]-pyrimidin-2-yl}amino)benzenesulfonamide] | < 100 nM | < 100 nM | < 100 nM
6 | CN(c1ccc(NC(=O)Nc2ccc(OC(F)(F)F)cc2)cc1)c1ccnc(Nc2ccc(S(N)(=O)=O)cc2)n1 [Example 21, 4-{[4-(methyl{4-[({[4-(trifluoromethoxy)phenyl]amino}carbonyl)amino]phenyl}amino)pyrimidin-2-yl]amino}benzenesulfonamide] | < 100 nM | < 100 nM | < 100 nM
7 | CN(c1cccc(NC(=O)Nc2cc(C(F)(F)F)ccc2F)c1)c1ccnc(Nc2cccc(S(N)(=O)=O)c2)n1 [Example 14, 3-({4-[{3-[({[2-Fluoro-5-(trifluoromethyl)phenyl]amino}carbonyl)amino]phenyl}(methyl)amino]pyrimidin-2-yl}amino)benzenesulfonamide] | < 100 nM | < 100 nM | < 100 nM

Now from value to molecule, other results behind:

Row | IC50 (Recombinant GST-Tie2) | IC50 (GST-VEGFR2) | Compound | IC50 [1]
8 | < 100 nM | < 100 nM | CCc1cccc(NC(=O)Nc2ccc(N(C)c3ccnc(Nc4ccc(S(N)(=O)=O)cc4)n3)cc2)c1 [Example 20, 4-({4-[[4-({[(3-ethylphenyl)amino]carbonyl}amino)phenyl](methyl)amino]pyrimidin-2-yl}amino)benzenesulfonamide] | < 100 nM
9 | < 100 nM | < 100 nM | CN(c1ccc(NC(=O)Nc2ccc(C(F)(F)F)cc2)cc1)c1ccnc(Nc2cccc(S(N)(=O)=O)c2)n1 [Example 2, 3-{[4-(methyl{4-[({[4-(trifluoromethyl)phenyl]amino}carbonyl)amino]phenyl}amino)pyrimidin-2-yl]amino}benzenesulfonamide] | < 100 nM
10 | < 100 nM | < 100 nM | CN(c1ccc(NC(=O)Nc2cc(C(F)(F)F)ccc2F)cc1)c1ccnc(Nc2ccc(CS(C)(=O)=O)cc2)n1 [Example 13, N-[2-fluoro-5-(trifluoromethyl)phenyl]-N′-(4-{methyl[2-({4-(methylsulfonyl)methyl]phenyl}amino)pyrimidin-4-yl]amino}phenyl)urea hydrochloride] | < 100 nM
11 | < 100 nM | < 100 nM | CN(c1cccc(NC(=O)Nc2cccc(Cl)c2)c1)c1ccnc(Nc2cccc(S(N)(=O)=O)c2)n1 [Example 15, 3-({4-[[3-({[(3-Chlorophenyl)amino]carbonyl}amino)phenyl](methyl)amino]pyrimidin-2-yl}amino)benzenesulfonamide] | < 100 nM
12 | < 100 nM | < 100 nM | CN(c1ccc(NC(=O)Nc2cc(C(F)(F)F)ccc2F)cc1)c1ccnc(Nc2cccc(S(N)(=O)=O)c2)n1 [Example 11, 3-({4-[{4-[({[2-Fluoro-5-(trifluoromethyl)phenyl]amino}carbonyl)amino]phenyl}(methyl)amino]pyrimidin-2-yl}amino)benzenesulfonamide] | < 100 nM
13 | < 100 nM | < 100 nM | CN(c1ccc(NC(=O)Nc2ccccc2)cc1)c1ccnc(Nc2cccc(S(N)(=O)=O)c2)n1 [Example 10, 3-({4-[{4-[(anilinocarbonyl)amino]phenyl}(methyl)amino]pyrimidin-2-yl}amino)benzenesulfonamide] | < 100 nM
14 | < 100 nM | < 100 nM | CN(c1ccc(NC(=O)Nc2cccc(F)c2)cc1)c1ccnc(Nc2cccc(S(N)(=O)=O)c2)n1 [Example 7, 3-({4-[[4-({[(3-Fluorophenyl)amino]corbonyl}amino)phenyl](methyl)amino]pyrimidin-2-yl}amino)benzenesulfonamide] | < 100 nM
15 | < 100 nM | < 100 nM | CN(c1ccc(NC(=O)Nc2cccc(F)c2)cc1)c1ccnc(Nc2ccc(CS(C)(=O)=O)cc2)n1 [Example 12, N-(3-fluorophenyl)-N′-(4-{methyl[2-({4-[(methylsulfonyl)methyl]phenyl}amino)pyrimidin-4-yl]amino}phenyl)urea hydrochloride] | < 100 nM
16 | < 100 nM | < 100 nM | CCS(=O)(=O)c1ccc(OC)c(Nc2nccc(N(C)c3ccc(NC(=O)Nc4cccc(F)c4)cc3)n2)c1 [Example 18, N-{4-[(2-{[5-(Ethylsulfonyl)-2-methoxyphenyl]amino}pyrimidin-4-yl)(methyl)amino]phenyl}-N′-(3-fluorophenyl)urea] | < 100 nM
17 | < 100 nM | < 100 nM | CCS(=O)(=O)c1ccc(OC)c(Nc2nccc(N(C)c3ccc(NC(=O)Nc4cccc(Cl)c4)cc3)n2)c1 [Example 8, N-(3-Chlorophenyl)-N′-{4-[(2-{[5-(ethylsulfonyl)-2-methoxyphenyl]amino}pyrimidin-4-yl)(methyl)amino]phenyl}urea] | < 100 nM

Reference: patent US7459455B2, “Pyrimidine compounds” (SmithKline Beecham Corporation, priority 2002, dated 2008)
